Read-outs that look alike come from different tables or passages of the source.
Key:
[1] = tested on: HCT116 WT; assay: Proliferation of HCT116 colorectal cell line, Cell TiterGlo; format: cell-based, human
Outline: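 HCT116 colorectal cells, wild type, GCN2 CRISPR knockout, or wild type plus ISRIB; proliferation read by CellTiter-Glo luminescence. 10-point dose response in triplicate, IC50 reported; multiple values are independent experiments.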

[2] = tested on: HCT116 GCN2KO; assay: Proliferation of HCT116 cells with GCN2 knocked out (CRISPR), Cell TiterGlo; format: cell-based, human; settings: Homo sapiens
Protocol: Briefly, compounds were tested for their effect on proliferation of HCT116 colorectal cell lines using Cell TiterGlo (Promega). Each compound was tested in a 10-point dose response experiment in triplicate. Multiple values in the column titled HCT116 WT reflect separate independent experiments. The three columns titled “HCT116 WT (repeat)”, “HCT116-CGN2KO” and “HCT116 WT+ISRIB” provide data for selected compounds that were tested simultaneously under three conditions. The HCT116 WT column lists IC50 against the wild type HCT116 colorectal cancer cell line. The HCT116-CGN2KO lists IC50 data for cells in which one component of the integrated stress response, GCN2, has been knocked out using CRISPR technology.

[3] = Homo sapiens, HCT-116, wild type HCT116, 10-point dose response in triplicate, multiple values = separate independent experiments, read-out: HCT116 IC50 (uM) HCT116 WT
[4] = Homo sapiens, HCT-116, wild type HCT116, tested simultaneously with GCN2KO and +ISRIB, read-out: HCT116 IC50 (uM) HCT116 WT (repeat)
[5] = wild type HCT116, compound plus 10 nM of ISRIB, read-out: HCT116 IC50 (uM) HCT116 WT + ISRIB
[6] = HCT-116, HCT116 cells with GCN2 knocked out using CRISPR, read-out: HCT116 IC50 (uM) HCT116 − GCN2KO

Structure (SMILES)	IC50 [1, 3] [µM]	IC50 [1, 4] [µM]	IC50 [1, 5] [µM]	IC50 [2, 6] [µM]	further results
Cn1nc(-c2ccc(NC(=O)c3ccccc3)cc2)cc1NC(=O)c1cccc(C#N)c1 [SW389158, N-(3-(4-Benzamidophenyl)-1-methyl-1H-pyrazol-5-yl)-3-cyanobenzamide]	0.561	0.39	3.01	2.96	–
COC(=O)c1cccc(C(=O)Nc2ccc(-c3cc(NC(=O)c4ccccc4)n(C)n3)cc2)c1 [SW393068, methyl 3-((4-(5-benzamido-1-methyl-1H-pyrazol-3-yl)phenyl)carbamoyl)benzoate]	8.3	13.6	–	47	–
Cn1nc(-c2ccc(NC(=O)c3ccccc3Cl)cc2)cc1NC(=O)c1ccc(C2(C(F)(F)F)N=N2)cc1 [SW393142, 2-Chloro-N-(4-(1-methyl-5-(4-(3-(trifluoromethyl)-3H-diazirin-3-yl)benzamido)-1H-pyrazol-3-yl)phenyl)benzamide]	–	–	–	–	IC50 ([1]; Homo sapiens, HCT-116, read-out: HCT116 IC50 (uM) HCT116 WT): 3.6 µM; IC50 ([1]; Homo sapiens, HCT-116, read-out: HCT116 IC50 (uM) HCT116 WT (repeat)): 1.59 µM; IC50 ([1]; read-out: HCT116 IC50 (uM) HCT116 WT + ISRIB, wild type HCT116, compound plus 10 nM of ISRIB): 3.41 µM; IC50 ([2]; HCT-116, read-out: HCT116 IC50 (uM) HCT116 − GCN2KO): 3.22 µM
C#Cc1cccc(C(=O)Nc2cc(-c3ccc(NC(=O)c4ccccc4)cc3)nn2C)c1 [SW389005, N-(3-(4-Benzamidophenyl)-1-methyl-1H-pyrazol-5-yl)-3-ethynylbenzamide]	0.313	0.33	2.96	2.97	–
Cn1nc(-c2ccc(NC(=O)c3ccc(C(=O)c4ccccc4)cc3)cc2)cc1NC(=O)c1ccccc1 [SW389002, N-(4-(5-Benzamido-1-methyl-1H-pyrazol-3-yl)phenyl)-4-benzoylbenzamide]	7.1	26.4	46.3	31.9	–
Cn1nc(-c2ccc(NC(=O)c3cccc(Cl)c3)cc2)cc1NC(=O)c1ccccc1 [SW393062, N-(4-(5-benzamido-1-methyl-1H-pyrazol-3-yl)phenyl)-3-chlorobenzamide]	2.1	2.37	8.72	10.5	–
C#CCOc1ccc(C(=O)c2ccc(C(=O)Nc3cc(-c4ccc(NC(=O)c5ccccc5)cc4)nn3C)cc2)cc1 [SW389012, N-(3-(4-Benzamidophenyl)-1-methyl-1H-pyrazol-5-yl)-4-(4-(prop-2-yn-1-yloxy)benzoyl)benzamide]	> 50	7.01	–	19.2	–
Cn1nc(-c2ccc(NC(=O)c3ccccc3)cc2)cc1NC(=O)c1cccc(N=[N+]=[N-])c1 [SW389157, 3-Azido-N-(3-(4-benzamidophenyl)-1-methyl-1H-pyrazol-5-yl)benzamide]	0.405	0.21	2.5	2.77	–
Cn1nc(-c2ccc(NC(=O)c3ccccn3)cc2)cc1NC(=O)c1ccccc1 [SW393126, N-(4-(5-benzamido-1-methyl-1H-pyrazol-3-yl)phenyl)picolinamide]	3.32	7.17	25.8	32.9	–
C#CCOc1ccc(C(=O)c2ccc(C(=O)Nc3ccc(-c4cc(NC(=O)c5ccccc5)n(C)n4)cc3)cc2)cc1 [SW389010, N-(4-(5-Benzamido-1-methyl-1H-pyrazol-3-yl)phenyl)-4-(4-(prop-2-yn-1-yloxy)benzoyl)benzamide]	20	43.1	–	41.1	–
COC(=O)c1ccc(C(=O)Nc2ccc(-c3cc(NC(=O)c4ccccc4)n(C)n3)cc2)cc1 [SW393073, methyl 4-((4-(5-benzamido-1-methyl-1H-pyrazol-3-yl)phenyl)carbamoyl)benzoate]	14	8	–	≥ 50	–
Cn1nc(-c2ccc(NC(=O)c3ccc(Cl)cc3)cc2)cc1NC(=O)c1ccccc1 [SW393072, N-(4-(5-benzamido-1-methyl-1H-pyrazol-3-yl)phenyl)-4-chlorobenzamide]	3.3	2.83	13.8	11.1	–
C#CCOc1ccc(C(=O)c2cccc(C(=O)Nc3cc(-c4ccc(NC(=O)c5ccccc5)cc4)nn3C)c2)cc1 [SW389152, N-(3-(4-Benzamidophenyl)-1-methyl-1H-pyrazol-5-yl)-3-(4-(prop-2-yn-1-yloxy)benzoyl)benzamide]	0.305	0.31	0.71	0.65	–
Cn1nc(-c2ccc(NC(=O)c3ccccc3)cc2)cc1NC(=O)c1ccccc1 [SW106593, N-(4-(5-Benzamido-1-methyl-1H-pyrazol-3-yl)phenyl)benzamide]	0.22	–	–	–	–
Cn1nc(-c2ccc(NC(=O)N3CCCCC3)cc2)cc1NC(=O)c1ccccc1 [SW394891-1, N-(4-(5-benzamido-1-methyl-1H-pyrazol-3-yl)phenyl)piperidine-1-carboxamide]	–	–	–	–	IC50 ([1]; wild type HCT116, 10-point dose response in triplicate, multiple values = separate independent experiments, read-out: HCT116 IC50 (uM) HCT116 WT): 0.24 µM
Cn1nc(-c2ccc(N)cc2)cc1NC(=O)c1ccccc1 [SW388714, N-(3-(4-Aminophenyl)-1-methyl-1H-pyrazol-5-yl)benzamide]	16	–	–	–	–

Now from value to compound, other results behind:

IC50 [1, 3] [µM]	IC50 [1, 4] [µM]	IC50 [1, 5] [µM]	IC50 [2, 6] [µM]	Structure (SMILES)	further results
> 50	≥ 50	–	≥ 50	Cn1nc(-c2ccc(NC(=O)c3ccccc3)cc2)cc1NC(=O)c1ccc(Cl)cc1 [SW393132, N-(3-(4-benzamidophenyl)-1-methyl-1H-pyrazol-5-yl)-4-chlorobenzamide]	–
2.4	4	3.11	2.9	C#CCN(C(=O)c1ccccc1Cl)c1ccc(-c2cc(NC(=O)c3cccc(C4(C(F)(F)F)N=N4)c3)n(C)n2)cc1 [SW393173, 2-Chloro-N-(4-(1-methyl-5-(3-(3-(trifluoromethyl)-3H-diazirin-3-yl)benzamido)-1H-pyrazol-3-yl)phenyl)-N-(prop-2-yn-1-yl)benzamide]	–
0.012	0.02	0.19	0.17	Cc1ccccc1C(=O)Nc1ccc(-c2cc(NC(=O)c3ccccc3)n(C)n2)cc1 [SW393134, N-(4-(5-benzamido-1-methyl-1H-pyrazol-3-yl)phenyl)-2-methylbenzamide]	–
0.01	0.06	0.49	0.41	CSc1ccccc1C(=O)Nc1ccc(-c2cc(NC(=O)c3ccccc3)n(C)n2)cc1 [SW393169, N-(4-(5-benzamido-1-methyl-1H-pyrazol-3-yl)phenyl)-2-(methylthio)benzamide]	–
15	–	–	–	Cc1ncccc1C(=O)Nc1ccc(-c2cc(NC(=O)c3ccccc3)n(C)n2)cc1F [SW394743, N-(4-(5-Benzamido-1-methyl-1H-pyrazol-3-yl)-2-fluorophenyl)-2-methylnicotinamide]	–
> 50	–	–	–	Cc1ncccc1C(=O)Nc1ccc(-c2cc(NC(=O)C3CCC(F)(F)CC3)n(C)n2)cc1F [SW394744, N-(4-(5-(4,4-Difluorocyclohexane-1-carboxamido)-1-methyl-1H-pyrazol-3-yl)-2-fluorophen-yl)-2-methylnicotinamide]	–
0.016	–	–	–	Cc1ncccc1C(=O)Nc1ccc(-c2cc(NC(=O)c3ccccc3)n(C)n2)cc1 [SW394518, N-(4-(5-Benzamido-1-methyl-1H-pyrazol-3-yl)phenyl)-2-methylnicotinamide]	–
0.58	–	–	–	Cn1nc(-c2ccc(NC(=O)c3ncccc3Cl)cc2)cc1NC(=O)c1ccccc1 [SW394447, N-(4-(5-Benzamido-1-methyl-1H-pyrazol-3-yl)phenyl)-3-chloropicolinamide]	–
0.03	–	–	–	Cc1ncccc1C(=O)Nc1ccc(-c2cc(NC(=O)c3ccccc3)n(C)n2)c(F)c1 [SW394694, N-(4-(5-Benzamido-1-methyl-1H-pyrazol-3-yl)-3-fluorophenyl)-2-methylnicotinamide]	–
0.02	–	–	–	Cn1nc(-c2ccc(NC(=O)c3cccc(CN=[N+]=[N-])c3Cl)cc2)cc1NC(=O)c1ccccc1Cl [SW394763, 3-(azidomethyl)-2-chloro-N-(4-(5-(2-chlorobenzamido)-1-methyl-1H-pyrazol-3-yl)phenyl)benzamide]	–
> 10	–	–	–	COc1cc(-c2cc(NC(=O)c3ccccc3)n(C)n2)ccc1NC(=O)c1ccccc1Cl [SW393279, N-(4-(5-benzamido-1-methyl-1H-pyrazol-3-yl)-2-methoxyphenyl)-2-chlorobenzamide]	–
0.02	–	–	–	Cn1nc(-c2ccc(NC(=O)c3cccnc3C(F)(F)F)cc2)cc1NC(=O)c1ccccc1 [SW394603, N-(4-(5-Benzamido-1-methyl-1H-pyrazol-3-yl)phenyl)-2-(trifluoromethyl)nicotinamide]	–
0.06	–	–	–	C#CCOCc1ccccc1C(=O)Nc1ccc(-c2cc(NC(=O)c3ccccc3)n(C)n2)cc1 [SW393189, N-(4-(5-benzamido-1-methyl-1H-pyrazol-3-yl)phenyl)-2-((prop-2-yn-1-yloxy)methyl)benzamide]	–
